Test results published in PubChem BioAssay (NCI).
Where “and” joins values, the source holds several entries; their conditions need not be identical. Identical values can stand only once.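 48-hour exposure; five concentrations; linearly interpolated endpoints. GI50: concentration for 50% inhibition of growth. TGI is the concentration that stops growth completely.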

Columns and labels:
Assay in all cases: inhibition of tumour cell growth, NCI panel, 48 h
ACHN renal = tested on: ACHN renal
COLO 205 colon = tested on: COLO 205 colon
EKVX NSCLC = tested on: EKVX NSCLC
HL-60(TB) leukemia = tested on: HL-60(TB) leukemia
OVCAR-4 ovarian = tested on: OVCAR-4 ovarian
OVCAR-8 ovarian = tested on: OVCAR-8 ovarian
SF-268 CNS = tested on: SF-268 CNS
SR leukemia = tested on: SR leukemia
HCC-2998 colon = tested on: HCC-2998 colon
MCF7 breast = tested on: MCF7 breast

Structure (SMILES) | TGI (ACHN renal) | TGI (COLO 205 colon) | TGI (EKVX NSCLC) | TGI (HL-60(TB) leukemia) | TGI (OVCAR-4 ovarian) | TGI (OVCAR-8 ovarian) | TGI (SF-268 CNS) | TGI (SR leukemia) | GI50 (ACHN renal) | GI50 (COLO 205 colon) | GI50 (EKVX NSCLC) | GI50 (HCC-2998 colon) | TGI (HCC-2998 colon) | GI50 (MCF7 breast) | TGI (MCF7 breast) | GI50 (OVCAR-4 ovarian) | GI50 (OVCAR-8 ovarian) | GI50 (SF-268 CNS) | GI50 (HL-60(TB) leukemia) | GI50 (SR leukemia)
O=C(CC/C(CC(=O)c1ccc(Cl)cc1)=N/O)Nc1ccc(Cl)c(Cl)c1 | > 100 µM | > 100 µM | > 100 µM | > 100 µM | > 100 µM | > 100 µM | > 100 µM | > 100 µM | – | – | – | – | – | – | – | – | – | – | – | –
COc1cc2c3c(n(CCCCNC(=O)OCC4c5ccccc5-c5ccccc54)c(=O)c2cc1OC)-c1cc2c(cc1C3=O)OCO2 | 50.4 µM | > 100 µM | > 100 µM | – | > 100 µM | > 100 µM | > 100 µM | – | 5.8 µM | 49.9 µM | 87.2 µM | 14.9 µM | > 100 µM | 0.554 µM | 16.2 µM | > 100 µM | 35 µM | 6.7 µM | – | –
COC(=O)c1c(C)cc2c(c1O)C1(O)C(=O)c3cc4c(c(O)c3C(=O)C1(OC)C(O)C2)C(=O)C=C(NC1OC(C)C(OC)C(O)C1OC)C4=O (stereo not drawn) | 0.205 µM | 0.186 µM | 0.864 µM | 0.184 µM | 0.213 µM | 0.14 µM | 0.648 µM | – | – | – | – | – | 0.28 µM | – | – | – | – | – | – | –
Oc1ccc2c3c1OC1C(=NN=C4CCC5(O)C6Cc7ccc(O)c8c7C5(CCN6CC5CC5)C4O8)CCC4(O)C(C2)N(CC2CC2)CCC314 (stereo not drawn) | > 100 µM | 38.4 µM | > 85.2 µM | 39.8 µM | > 66 µM | 84 µM | > 83.3 µM | 80.4 µM | – | – | – | – | 52.7 µM | – | – | – | – | – | – | –
COc1cc2c3c(n(CCCNC(=O)OCC4c5ccccc5-c5ccccc54)c(=O)c2cc1OC)-c1cc2c(cc1C3=O)OCO2 | 6.25 µM | > 100 µM | > 100 µM | > 100 µM | > 100 µM | > 100 µM | > 72.4 µM | – | 0.376 µM | > 100 µM | > 100 µM | > 100 µM | > 100 µM | 7.62 µM | > 100 µM | > 100 µM | > 93.6 µM | 16.6 µM | > 81.2 µM | –
COCOCc1cc(OCc2ccccc2)c(OC)cc1Br | > 100 µM | > 100 µM | > 100 µM | – | > 100 µM | > 100 µM | > 100 µM | > 100 µM | – | – | – | – | – | – | – | – | – | – | – | –
N#CCCN(CCC#N)c1ccc(/C=N\c2nc(-c3ccccc3)cs2)cc1 | > 100 µM | > 100 µM | > 100 µM | > 100 µM | > 100 µM | > 100 µM | > 100 µM | – | – | – | – | – | – | – | – | – | – | – | – | –
CC(=O)c1c(O)ccc2c(C)c(C(=O)O)oc12 | > 100 µM | > 100 µM | > 100 µM | – | > 100 µM | > 100 µM | > 100 µM | – | > 100 µM | > 100 µM | > 100 µM | 55.8 µM | > 100 µM | > 100 µM | > 100 µM | > 100 µM | > 100 µM | > 100 µM | – | –
CCOC(=O)N[C@H]1CCc2cc(O)c(OC)c(OC)c2-c2ccc(SC)c(=O)cc21 | > 100 µM | 1.22 µM | > 100 µM | – | > 100 µM | > 100 µM | 37.8 µM | > 100 µM | – | – | – | – | > 100 µM | – | – | – | – | – | – | –
CCCCCCCCCCCCSC(=NC)NC | 3.35 µM | – | 17.6 µM | 4.41 µM | 5.61 µM | > 100 µM | 22.5 µM | 5.32 µM | 1.73 µM | – | 3.71 µM | 1.6 µM | 3.03 µM | – | – | 2.16 µM | 2.88 µM | 3.82 µM | 1.86 µM | 1.37 µM
COc1cc(-n2cc(-c3ccc(F)cc3)[nH]c2=S)cc(OC)c1OC | > 100 µM | > 100 µM | > 100 µM | > 100 µM | > 100 µM | > 100 µM | > 100 µM | – | > 100 µM | > 100 µM | > 100 µM | > 100 µM | > 100 µM | 55.9 µM | > 100 µM | > 100 µM | > 100 µM | 32.8 µM | > 100 µM | –
CO/N=C(\COc1ccc2c(c1)oc(=O)c1cc(OC)ccc12)c1cccc(OC)c1 | – | > 100 µM | > 100 µM | – | > 100 µM | > 100 µM | > 100 µM | – | – | > 100 µM | > 100 µM | > 100 µM | > 100 µM | > 100 µM | > 100 µM | > 100 µM | > 100 µM | > 100 µM | – | –
c1ccc2c(Nc3ccc(Oc4ccc(Nc5c6ccccc6nc6ccccc56)cc4)cc3)c3ccccc3nc2c1 | 0.101 µM and 0.26 µM | 3.65 µM and 2.45 µM | 5.17 µM and 4.63 µM | – | 0.637 µM and 0.145 µM | 0.526 µM | 2.81 µM and 4.88 µM | 0.323 µM | 0.0309 µM and 0.133 µM | 1.52 µM | 2.5 µM | – | 0.0155 µM | 0.176 µM | – | 0.278 µM | – | 0.758 µM | – | 0.126 µM
O=C1C2C(C(=O)N1c1ccccc1)C1(c3ccccc3)OC2(c2ccccc2)c2ccccc21 (stereo not drawn) | > 100 µM | > 100 µM | > 100 µM | > 100 µM | > 100 µM | > 100 µM | > 100 µM | – | – | – | – | – | > 100 µM | – | – | – | – | – | – | –
CCCC(=O)Nc1cc([N+](=O)[O-])c([N+](=O)[O-])cc1OC | 26.5 µM | 30.9 µM | 31.8 µM | 39 µM | 33.6 µM | 34.2 µM | 34.6 µM | 21.5 µM | – | – | – | – | – | – | > 100 µM | – | – | – | – | –
CCOCC(=O)N[C@H]1CCc2cc(OC(=O)COCC)c(OC)c(OC)c2-c2ccc(SC)c(=O)cc21 | > 100 µM | 0.054 µM | > 100 µM | 0.0313 µM and 0.0326 µM | > 100 µM | – | – | – | 0.0831 µM | – | 32.1 µM | 0.0211 µM | 0.0549 µM and 0.0866 µM | – | > 100 µM | – | 0.0365 µM | 0.0431 µM | – | –
Cc1[nH]n(-c2ccc(S(=O)(=O)O)cc2)c(=O)c1N=Nc1ccccc1 | > 100 µM | > 100 µM | > 100 µM | – | > 100 µM | > 100 µM | > 100 µM | > 100 µM | – | – | – | – | > 100 µM | – | > 100 µM | – | – | – | – | –
CN1C(=O)c2cc([N+](=O)[O-])ccc2[C@H]2C(=O)c3cc4c(cc3[C@H]21)OCO4 | 0.0463 µM | > 61.2 µM | > 24.5 µM | > 100 µM | > 100 µM | – | 1.68 µM | – | 0.0134 µM | 0.225 µM | 0.993 µM | – | – | 0.118 µM | 0.451 µM | 0.68 µM | 0.0702 µM | 0.0243 µM | 0.215 µM | –
